From patent US11857544B2, “Composition or method including (t)ew-7197 for treating or preventing corneal endothelial diseases” (THE DOSHISHA, priority 2017, dated 2024)

Columns and labels:
[1] = tested on: activated form of cleaved caspase 3; experiment: Western blot for cleaved caspase 3 in TGF-β-stimulated iFECD; type: cell-based, human; details: 0.1, 1, 10 μM
Experimental: […] were seeded on a 12-well plate at a ratio of 8×10^4 cells per well, and cultured at 37° C. (5% CO2) for 24 hours. DMEM+10% FBS+1% P/S was used as the medium. After 24 hours, the medium was removed. EW-7197 (Selleck Chemicals, 57530) was added so that the final concentration would be 0.1, 1, or 10 μM, and SB431542 (WAKO, 192-16541) was added so that the final concentration would be 10 μM, and the medium was cultured for 24 hours. DMEM+2% FBS+1% P/S was used as the medium. After 24 hours, the medium was removed and cultured […] so that the final concentration of 10 ng/ml of Transforming Growth Factor-132 Human recombinant (WAKO, 200-19911) and […] would be 0.1, 1, and 10 μM, and that of SB431542 would be 10 μM. DMEM+2% FBS+1% P/S was used as the medium. After 24 hours, the cell morphology and apoptosis were observed under a phase contrast microscope. To retrieve floating and dead cells, the medium was retrieved on ice, cells were washed twice with 1×PBS(-) and the solution thereof was also retrieved. The solution was centrifuged for 5 min at 4° C. and 800 g and the supernatant was discarded to obtain a precipitate. […] The detected band intensities were analyzed with Lumino Image Analyzer LAS-4000 mini (Fuji Film) and ImageQuantTM software (GE Healthcare).

[2] = tested on: fibronectin; experiment: Area of fibronectin expression by immunostaining, Col8a2 knock-in mice (Example 6); type: in vivo
Experimental: 5 μL of 0.02% (about 0.5 mM) EW-7197 eye drop, 0.1% (about 2.5 mM) EW-7197 eye drop, or a base agent (DMSO containing phosphate buffer) was administered as an eye drop to both eyes of 4-month-old alpha 2 collagen 8 gene (Col8a2) knock-in mice 4 times a day for 12 weeks. A surfactant was added to the base agent as needed. Those skilled in the art can use an appropriate and suitable surfactant (Kenji Motose (1984). “Tenganzai” [Eye drops] Nanzando; International Pharmaceutical Excipients Council Japan (2016). “Iyakuhin Tenkabutsu Jiten” [Pharmaceutical Excipient Encyclopedia] Yakuji Nippo, Limited). The corneal endothelial cell density was measured using a specular microscope KS3M (Konan Medical, Inc.) at before eye drops, and 3, 6, 9, and 12 weeks after eye drops. Mice were euthanized by intraperitoneally administering an excessive amount (200 mg/kg body weight or greater) of anesthetic injection Somnopentyl (Kyoritsu Seiyaku Corporation) 12 weeks after injection. After confirming cardiac arrest, both eye balls were harvested. The harvested eye balls were incised to prepare a corneal fragment. Immunostaining of fibronectin was performed. The immunostaining method was the following. Image-Pro (Nippon Roper K.K.) was used to analyze the area of fibronectin expression.
After immobilizing a mouse corneal fragment for 10 minutes at room temperature in 4% paraformaldehyde, 0.5% TritonX-100 was added and allowed to permeate for 5 minutes. 1% bovine serum albumin (BSA) was added and the fragment was incubated for 1 hour at room temperature. The corneal fragment was then immersed in a primary antibody solution and reacted overnight at 4° C. 1:250 diluent of fibronectin polyclonal antibody (abcam) was used as the primary antibody. Next, the corneal fragment was immersed in a mixture of a secondary antibody solution and DAPI solution (Dojindo Laboratories) and reacted for 1 hour at room temperature away from light. 1:2000 diluent of Alexa Fluor® 488-labeled goat anti-rabbit IgG (Life Technologies) was used as the secondary antibody. 1:1000 diluent of DAPI solution was used. […]

Cc1cccc(-c2[nH]c(CNc3ccccc3F)nc2-c2ccc3ncnn3c2)n1 [EW-7197, N-((4-([1,2,4]triazolo[1,5-a]pyridin-6-yl)-5-(6-methylpyridin-2-yl)-1H-imidazol-2-yl)methyl)-2-fluoroaniline]
activated form of cleaved caspase 3 (about 17 kDa) [1]: suppressed to the same degree as the control group without stimulation with TGF-β or 10 μM of SB431542 | fibronectin expression ([2]; 0.004% (0.1 mM) eye drop): tendency of suppressing fibronectin expression | fibronectin expression ([2]; 0.02% eye drop, 12 weeks): clear suppression of fibronectin expression | fibronectin expression ([2]; 0.1% eye drop, 12 weeks): clear suppression of fibronectin expression
